In experiment [1] the test system is panel of solid and haemotological tumor cell lines (e.g., Hs578t, SiHa, MDA-MB-231). Briefly: MTS cell proliferation assay (cytotoxicity). The class given is cell-based. Conditions: 72-96 hours, 10 mM lactate medium or RPMI 1640 medium, cell line not stated. How it is done: The anti-proliferation effect of MCT inhibition was investigated across a panel of solid and haemotological tumor cell lines. Cells were routinely cultured in their appropriate growth medium. On day 1, between 10,000-25,000 cells/well (e.g., Hs578t: 15,000 cells/well, SiHa: 10,000 cells/well, and MDA-MB-231: 25,000 cells/well) were plated into 96-well plates. 100 μL. of phosphate buffered saline solution was added to the external wells to prevent media evaporation. Plates were incubated in growth medium overnight at 37° C. in the presence of 5% CO2. On day 2, dry weight compound stocks were dissolved to a concentration of 10 mM in 100% DMSO. Compounds were further diluted in the assay medium; 10 mM lactate medium (without glucose, pyruvate, and glutamine) or RPMI 1640 medium (without pyruvate and glutamine) to generate a final dose range of 1 nM to 10 μM. Growth medium in the 96-well plate was replaced with the assay medium (10 mM lactate medium or RPMI medium or appropriate medium), and compounds were added to each well in the plate at different concentrations via serial dilution or pre-prepared solutions in assay medium. Plates were then incubated at 37° C. in the presence of 5% CO2 for a further 72-96 hours. On day 2-5, assay media was changed to 100 uL of DMEM/F12 and 20 μL of CellTiter 96 AQ MTS reagent was added to each well and the plate was returned to the incubator for 1-2 hours. MTS is bioreduced by NADPH or NADH produced by dehydrogenase enzymes in metabolically active cells into a coloured formazan product that is soluble in tissue culture medium. The amount of coloured formazan product is directly proportional to the number of living cells in culture. The absorbance of the plates was read on a Spectramax M5e plate reader using […] measurement wavelength. Dose response curves were plotted and IC50 values were calculated using GraphPad Prism. The IC50 value is equivalent to the concentration of compound that causes 50% inhibition of growth calculated from the compound treated signal to the vehicle treated signal.
Cytotoxicity of selected compounds is listed in Table 1, where IC50: A=<1 uM; B=1-10 uM; C=>10 uM; and NT=Not Tested.

The subject of experiment [2] is monocarboxylate transporters. The experiment can be described thus: Lactate detection assay in cancer cell lines (intracellular lactate, Lactate-glo). Particulars: 24 hours incubation. The experiment is classed as cell-based. How it is done:
Cells are maintained in their appropriate growth medium (RPMI medium with 2 g/L glucose, 2 mM L-glutamine supplemented with 10% FBS and P/S (growth medium). 15,000-25,000 cells were seeded into white 96-well plates in growth medium and incubated for 24 hours at 37° C. and 5% CO2. A duplicate plate was also seeded for normalization by an MTS assay. Dry weight compound stocks were dissolved to a concentration of 10 mM in 100% DMSO. Compounds were further diluted in the assay medium (Lactate media: 10 mM lactate, 5% FBS, and 1× P/S; Glucose media: RPMI, 5% FBS, and 1× P/S). Growth media was changed 24 hours later to assay medium containing 10 μM compound or vehicle (DMSO) control and incubated for 24 hours. Conditioned media was collected and the cells were washed in 200 μL ice-cold PBS. […] After a 5 minute incubation, 12.5 μL Neutralization solution (1M Trizma) is incubated for 1 minute. Intracellular lactate measurements were performed using a Lactate-glo kit (Promega). Briefly, the lactate detection reagent is mixed immediately before use and 50 μL is pipetted into each well and incubated at room temperature for 1 hour. Lactate is oxidized by enzymatic reactions to generate light. The luminescence is recorded using a Spectramax M5e plate reader and the concentration of lactate is determined using a known concentration of spiked lactate in PBS using GraphPad Prism.

The target of experiment [3] is T1, monocarboxylate transporter 1 (MCT1) (Homo sapiens, UniProt P53985).
T1 sequence (P53985 1-500): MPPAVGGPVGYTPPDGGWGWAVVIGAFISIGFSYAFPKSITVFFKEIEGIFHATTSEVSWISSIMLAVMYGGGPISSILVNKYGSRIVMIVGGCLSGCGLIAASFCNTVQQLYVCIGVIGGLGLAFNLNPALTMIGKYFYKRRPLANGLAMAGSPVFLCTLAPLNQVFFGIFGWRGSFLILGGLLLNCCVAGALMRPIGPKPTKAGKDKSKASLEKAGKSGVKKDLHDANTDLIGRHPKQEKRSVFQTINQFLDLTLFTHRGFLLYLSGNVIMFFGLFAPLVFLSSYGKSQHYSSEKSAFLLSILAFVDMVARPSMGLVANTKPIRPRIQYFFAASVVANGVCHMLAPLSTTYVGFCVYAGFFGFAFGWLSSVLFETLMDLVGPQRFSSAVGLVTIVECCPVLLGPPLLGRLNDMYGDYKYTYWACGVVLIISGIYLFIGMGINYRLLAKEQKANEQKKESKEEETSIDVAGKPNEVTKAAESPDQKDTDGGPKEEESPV
T1 sequence (P35613 140-385 partner limits assumed): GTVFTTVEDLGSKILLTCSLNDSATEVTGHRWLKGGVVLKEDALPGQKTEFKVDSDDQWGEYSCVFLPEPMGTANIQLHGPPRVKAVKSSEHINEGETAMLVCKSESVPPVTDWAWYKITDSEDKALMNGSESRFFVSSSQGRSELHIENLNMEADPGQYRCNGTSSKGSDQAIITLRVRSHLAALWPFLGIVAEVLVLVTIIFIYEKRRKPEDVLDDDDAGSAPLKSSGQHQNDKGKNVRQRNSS
Conditions: literature value; cited from earlier work.

In experiment [4] the target is T2, monocarboxylate transporter 4 (MCT4) (Homo sapiens, UniProt O15427).
T2 sequence (O15427 2-465 limits assumed): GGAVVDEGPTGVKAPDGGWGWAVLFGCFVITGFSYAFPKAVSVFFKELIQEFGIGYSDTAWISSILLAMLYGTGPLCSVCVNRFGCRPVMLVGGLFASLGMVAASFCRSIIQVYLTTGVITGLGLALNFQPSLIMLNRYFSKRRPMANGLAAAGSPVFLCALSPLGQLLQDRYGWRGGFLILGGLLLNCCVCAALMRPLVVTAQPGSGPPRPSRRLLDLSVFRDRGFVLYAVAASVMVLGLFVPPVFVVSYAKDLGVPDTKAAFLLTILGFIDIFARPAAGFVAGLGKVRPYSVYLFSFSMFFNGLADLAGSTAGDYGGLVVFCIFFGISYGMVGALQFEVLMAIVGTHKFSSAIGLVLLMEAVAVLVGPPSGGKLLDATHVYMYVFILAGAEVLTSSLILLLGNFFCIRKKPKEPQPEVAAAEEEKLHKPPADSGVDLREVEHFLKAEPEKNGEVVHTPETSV
T2 sequence (P35613 140-385 partner limits assumed): T1 sequence (P35613 140-385 partner limits assumed)
Conditions: literature value; cited from earlier work.

Another experiment deals with tumor cells. Particulars: literature, Cell Reports 2019; cited from earlier work.

Here are results for 20 compounds from patent US20220249454A1, “INHIBITORS OF MONOCARBOXYLATE TRANSPORTERS FOR CANCER IMMUNOTHERAPY” (NIROGY THERAPEUTICS, INC., priority 2021, published 2022).

For `CN(Cc1ccccc1)c1cc2oc(=O)c(C(=O)O)cc2s1` [Compound 1.001, 2-(benzyl(methyl)amino)-5-oxo-5H-thieno[3,2-b]pyran-6-carboxylic acid], the IC50 in experiment [1] (Table 1 (Group 1)) and in experiment [2] was below 1 µM throughout.
With `CN(Cc1ccc(F)cc1)c1cc2oc(=O)c(C(=O)O)cc2s1` [Compound 1.002, 2-((4-fluorobenzyl)(methyl)amino)-5-oxo-5H-thieno[3,2-b]pyran-6-carboxylic acid], the IC50 in experiment [1] (Table 1 (Group 1)) and in experiment [2] was below 1 µM each time.
Consider `COc1cccc(C(=O)N(C)c2cc3oc(=O)c(C(=O)O)cc3s2)c1` [Compound 1.009, 2-(3-methoxy-N-methylbenzamido)-5-oxo-5H-thieno[3,2-b]pyran-6-carboxylic acid], for which the 50% inhibitory concentration (IC50) in experiment [1] (Table 1 (Group 1)) and in experiment [2] was below 1 µM throughout.
Turning to `COc1ccccc1C(=O)N(C)c1cc2oc(=O)c(C(=O)O)cc2s1` [Compound 1.017, 2-[(2-Methoxy-benzoyl)-methyl-amino]-5-oxo-5H-thieno[3,2-b]pyran-6-carboxylic acid], the concentration for half-maximal inhibition (IC50) in experiment [1] (Table 1 (Group 1)) and in experiment [2] was below 1 µM in each case.
Regarding `COc1cc(F)ccc1C(=O)N(C)c1cc2oc(=O)c(C(=O)O)cc2s1` [Compound 1.094, 2-(4-fluoro-2-methoxy-N-methylbenzamido)-5-oxo-5H-thieno[3,2-b]pyran-6-carboxylic acid], the IC50 in experiment [1] (Table 1 (Group 1)) and in experiment [2] was below 1 µM each time.
With `CN(C(=O)Nc1ccc(F)cc1F)c1cc2oc(=O)c(C(=O)O)cc2s1` [Compound 2.037, 2-(3-(2,4-difluorophenyl)-1-methylureido)-5-oxo-5H-thieno[3,2-b]pyran-6-carboxylic acid], in experiment [1] (Table 2 (Group 2)), the IC50 was below 1 µM.
On the same count and under the same terms, next, `CN(C(=O)Nc1cccc2c1CCCC2)c1cc2oc(=O)c(C(=O)O)cc2s1` [Compound 2.038, 2-(1-methyl-3-(5,6,7,8-tetrahydronaphthalen-1-yl)ureido)-5-oxo-5H-thieno[3,2-b]pyran-6-carboxylic acid]: below 1 µM.
Same read-out and setting: next, `CN(C(=O)Nc1ccc(F)c(F)c1)c1cc2oc(=O)c(C(=O)O)cc2s1` [Compound 2.040, 2-(3-(3,4-difluorophenyl)-1-methylureido)-5-oxo-5H-thieno[3,2-b]pyran-6-carboxylic acid]: below 1 µM.
The same measure, in the same setting: the figure for `CN(C(=O)Nc1ccc(Oc2ccccc2Cl)cc1)c1cc2oc(=O)c(C(=O)O)cc2s1` [Compound 2.041, 2-(3-(4-(2-chlorophenoxy)phenyl)-1-methylureido)-5-oxo-5H-thieno[3,2-b]pyran-6-carboxylic acid] is below 1 µM; for `CN(C(=O)Nc1cc(C(F)(F)F)cc(C(F)(F)F)c1)c1cc2oc(=O)c(C(=O)O)cc2s1` [Compound 2.042, 2-(3-(3,5-bis(trifluoromethyl)phenyl)-1-methylureido)-5-oxo-5H-thieno[3,2-b]pyran-6-carboxylic acid] it is below 1 µM.
On to `CN(C(=O)NC1CCOCC1)c1cc2oc(=O)c(C(=O)O)cc2s1` [Compound 2.043, 2-(1-methyl-3-(tetrahydro-2H-pyran-4-yl)ureido)-5-oxo-5H-thieno[3,2-b]pyran-6-carboxylic acid], for which the IC50 in experiment [1] (Table 2 (Group 2)) was below 1 µM.
Still for that read-out and setting: the figure for `CN(C(=O)N1CCOCC1)c1cc2oc(=O)c(C(=O)O)cc2s1` [Compound 2.044, 2-(N-methylmorpholine-4-carboxamido)-5-oxo-5H-thieno[3,2-b]pyran-6-carboxylic acid] is below 1 µM.
Still for that read-out and setting: the figure for `CN(C(=O)N1CCCCC1)c1cc2oc(=O)c(C(=O)O)cc2s1` [Compound 2.045, 2-(N-methylpiperidine-1-carboxamido)-5-oxo-5H-thieno[3,2-b]pyran-6-carboxylic acid] is below 1 µM; for `CN(C(=O)N1CCCC1)c1cc2oc(=O)c(C(=O)O)cc2s1` [Compound 2.046, 2-(N-methylpyrrolidine-1-carboxamido)-5-oxo-5H-thieno[3,2-b]pyran-6-carboxylic acid] it is below 1 µM.
Same read-out and setting: next, `COc1cnccc1NC(=O)N(C)c1cc2oc(=O)c(C(=O)O)cc2s1` [Compound 2.047, 2-(3-(3-methoxypyridin-4-yl)-1-methylureido)-5-oxo-5H-thieno[3,2-b]pyran-6-carboxylic acid]: below 1 µM.
As for `CN(C(=O)Nc1nc(C(C)(C)C)cs1)c1cc2oc(=O)c(C(=O)O)cc2s1` [Compound 2.048, 2-(3-(4-(tert-butyl)thiazol-2-yl)-1-methylureido)-5-oxo-5H-thieno[3,2-b]pyran-6-carboxylic acid], the concentration for half-maximal inhibition (IC50) in experiment [1] (Table 2 (Group 2)) was below 1 µM.
`CC(C)c1csc(NC(=O)N(C)c2cc3oc(=O)c(C(=O)O)cc3s2)n1` [Compound 2.049, 2-(3-(4-isopropylthiazol-2-yl)-1-methylureido)-5-oxo-5H-thieno[3,2-b]pyran-6-carboxylic acid] displayed a concentration for half-maximal inhibition (IC50) in experiment [1] (Table 2 (Group 2)) below 1 µM.
The same measure, in the same setting: next, `CN(Cc1cccc(-c2ccc(F)cc2)c1)c1cc2oc(=O)c(C(=O)O)cc2s1` [Compound 2.050, 2-(((4′-fluoro-[1,1′-biphenyl]-3-yl)methyl)(methyl)amino)-5-oxo-5H-thieno[3,2-b]pyran-6-carboxylic acid]: below 1 µM; `CN(C(=O)Nc1cc(C(C)(C)C)on1)c1cc2oc(=O)c(C(=O)O)cc2s1` [Compound 2.055, 2-(3-(5-(tert-butyl)isoxazol-3-yl)-1-methylureido)-5-oxo-5H-thieno[3,2-b]pyran-6-carboxylic acid]: below 1 µM.
Turning to `O=C(O)Cc1ccccc1Nc1c(Cl)cccc1Cl` [diclofenac], the IC50 was 1400 nM in experiment [3] and 140 nM in experiment [4]. In addition, the “concentration required to see efficacy in in vitro models” value in the experiment with tumor cells was 150 to 200 µM.
